ChEMBL document CHEMBL1201862, “PubChem BioAssay data set” (2004)
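Dose response: 5 concentrations. Exposure: 48 h. Format: 96-well plates. Endpoint: linear interpolation; highest concentration if not reached. Here, GI50 denotes the concentration required for 50% inhibition of growth.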 The source made the active and inactive calls. No stated cut-off is given here; in the data, active = GI50 up to about 1.1 µM and inactive = higher.

Tests used:
Test in all cases: inhibition of tumour cell growth, NCI panel, 48 h
[1] = tested on: A498
[2] = tested on: CCRF-CEM
[3] = tested on: COLO 205
[4] = tested on: EKVX
[5] = tested on: HCT-15
[6] = tested on: K562
[7] = tested on: MOLT-4
[8] = tested on: NCI-H226
[9] = tested on: NCI-H23
[10] = tested on: NCI-H522
[11] = tested on: OVCAR-3
[12] = tested on: SK-MEL-28
[13] = tested on: SK-MEL-2
[14] = tested on: SK-MEL-5
[15] = tested on: SK-OV-3
[16] = tested on: TK-10
[17] = tested on: U-251
[18] = tested on: UACC-62
[19] = tested on: UO-31
[20] = tested on: SF-268

SMILES | GI50 [1] | GI50 [2] | GI50 [3] | GI50 [4] | GI50 [5] [µM] | GI50 [6] | GI50 [7] | GI50 [8] | GI50 [9] | GI50 [10] | GI50 [11] | GI50 [12] | GI50 [13] | GI50 [14] | GI50 [15] | GI50 [16] | GI50 [17] | GI50 [18] | GI50 [19] | GI50 [20]
CC[P+](C)(Cc1ccccc1)c1ccccc1 (stereo not given) | > 100 µM (inactive) | > 100 µM (inactive) | 69.5 µM (inactive) | > 100 µM (inactive) | > 100 | > 100 µM (inactive) | > 100 µM (inactive) | > 100 µM (inactive) | > 100 µM (inactive) | 44.2 µM (inactive) | 58.5 µM (inactive) | > 100 µM (inactive) | > 100 µM (inactive) | 51.3 µM (inactive) | > 100 µM (inactive) | > 100 µM (inactive) | 59 µM (inactive) | > 100 µM (inactive) | > 100 µM (inactive) | 
CC(=O)c1cccc(C)c1C(=O)O | > 100 µM (inactive) | > 100 µM (inactive) | > 100 µM (inactive) | > 100 µM (inactive) | > 100 | > 100 µM (inactive) | > 100 µM (inactive) | > 100 µM (inactive) | > 100 µM (inactive) | > 100 µM (inactive) | > 100 µM (inactive) | > 100 µM (inactive) | > 100 µM (inactive) | > 100 µM (inactive) | > 100 µM (inactive) | > 100 µM (inactive) | > 100 µM (inactive) | > 100 µM (inactive) | > 100 µM (inactive) | > 100 µM (inactive)
CC(C)/C(Cl)=N\OC(=O)Nc1cccc(Cl)c1 | 17.4 µM (inactive) | 1.67 µM (inactive) | 2.08 µM (inactive) | 16.3 µM (inactive) | 16.1 | 2.07 µM (inactive) | 2.65 µM (inactive) | 20.8 µM (inactive) | 15.2 µM (inactive) | 1.66 µM (inactive) | 3.28 µM (inactive) | 16.9 µM (inactive) | 15.5 µM (inactive) | 13.5 µM (inactive) | > 43.9 µM (inactive) | 15.3 µM (inactive) | 18.4 µM (inactive) | 20.2 µM (inactive) | 19.1 µM (inactive) | 18.5 µM (inactive)
O=c1[nH]nc(Cc2ccccc2)n1O | > 100 µM (inactive) | > 100 µM (inactive) | > 100 µM (inactive) | > 100 µM (inactive) |  | > 100 µM (inactive) | > 100 µM (inactive) | > 100 µM (inactive) | > 100 µM (inactive) | > 100 µM (inactive) | > 100 µM (inactive) | > 100 µM (inactive) | > 10 µM (inactive) | > 100 µM (inactive) | > 100 µM (inactive) | > 100 µM (inactive) | > 100 µM (inactive) | > 100 µM (inactive) | > 100 µM (inactive) | > 100 µM (inactive)
CCC1=C(CC)C1(C#N)[N+](=O)[O-] | > 100 µM (inactive) | > 100 µM (inactive) | > 100 µM (inactive) | > 100 µM (inactive) | > 100 | > 100 µM (inactive) | > 100 µM (inactive) | > 100 µM (inactive) | > 100 µM (inactive) | > 100 µM (inactive) | > 100 µM (inactive) |  | > 100 µM (inactive) | > 100 µM (inactive) | > 100 µM (inactive) | > 100 µM (inactive) | > 100 µM (inactive) | > 100 µM (inactive) | > 100 µM (inactive) | > 100 µM (inactive)
Cc1cc(=O)n(-c2c(C)cccc2Cl)c(/C=C(\O)c2ccncc2)n1 | > 100 µM (inactive) | > 100 µM (inactive) | > 100 µM (inactive) | > 100 µM (inactive) | > 100 | 44.8 µM (inactive) | > 100 µM (inactive) | > 100 µM (inactive) | > 100 µM (inactive) | > 100 µM (inactive) | > 100 µM (inactive) | > 100 µM (inactive) | > 100 µM (inactive) | 96.4 µM (inactive) | > 100 µM (inactive) | > 100 µM (inactive) | > 100 µM (inactive) | > 100 µM (inactive) | 35.3 µM (inactive) | > 100 µM (inactive)
N#CC1=C(N)N2C(=O)/C(=C/c3ccccc3O)N=C2S1 | > 100 µM (inactive) | 26.4 µM (inactive) | > 100 µM (inactive) | 51.9 µM (inactive) | 33.5 | 26.1 µM (inactive) | 18.5 µM (inactive) | > 100 µM (inactive) | 95.3 µM (inactive) | 47.8 µM (inactive) | 66.2 µM (inactive) | > 100 µM (inactive) | > 100 µM (inactive) | 80 µM (inactive) | > 100 µM (inactive) | > 100 µM (inactive) | > 100 µM (inactive) |  | 94.6 µM (inactive) | 41.1 µM (inactive)
CCOc1ccc2nc3cc(/N=N/c4ccc(N)nc4N)ccc3c(N)c2c1 | 8.89 µM (inactive) | 0.136 µM (active) | 1.86 µM (inactive) | 7.96 µM (inactive) | 37.8 | 0.299 µM (active) | 1.46 µM (inactive) | 21.7 µM (inactive) | 3.94 µM (inactive) | 2.99 µM (inactive) | 1.53 µM (inactive) | 15.6 µM (inactive) | 2.1 µM (inactive) | 17.3 µM (inactive) | 7 µM (inactive) | 13.9 µM (inactive) | 0.578 µM (active) | 14.8 µM (inactive) | 28.4 µM (inactive) | 1.64 µM (inactive)
CC(=O)NC(Cc1ccc(OP(=O)(OCc2ccc([N+](=O)[O-])o2)N(C)CCCCCl)cc1)C(=O)NC(C)c1ccc(OCC2CCCCC2)c(C(N)=O)c1 (stereo not given) | 18.9 µM (inactive) | 1.33 µM (inactive) | 1.87 µM (inactive) |  | 20.4 | 3.91 µM (inactive) | 3.53 µM (inactive) | 5.94 µM (inactive) | 2.21 µM (inactive) | 3.73 µM (inactive) | 2.27 µM (inactive) | 2.12 µM (inactive) | 3.08 µM (inactive) | 1.61 µM (inactive) | 11.5 µM (inactive) | 11.4 µM (inactive) | 2.48 µM (inactive) | 2.31 µM (inactive) | 17.3 µM (inactive) | 2.24 µM (inactive)
CC(C)C1=CCC2C(=C1)CCC1C(C)(C(=O)O)CCCC21C (stereo not given) | > 100 µM (inactive) | > 100 µM (inactive) | > 100 µM (inactive) | > 100 µM (inactive) | > 100 |  | 63.1 µM (inactive) | > 100 µM (inactive) | 81.1 µM (inactive) | > 100 µM (inactive) | > 100 µM (inactive) | > 100 µM (inactive) | > 100 µM (inactive) | > 100 µM (inactive) | > 100 µM (inactive) | > 100 µM (inactive) | > 100 µM (inactive) | > 100 µM (inactive) | 79.1 µM (inactive) | > 100 µM (inactive)
COc1ccc(/C=C2\N/C(=N/N)N=C2Cl)cc1 | > 100 µM (inactive) | > 100 µM (inactive) | > 100 µM (inactive) | > 100 µM (inactive) | > 100 | > 100 µM (inactive) | > 100 µM (inactive) | > 100 µM (inactive) | > 100 µM (inactive) | > 100 µM (inactive) | > 100 µM (inactive) | > 100 µM (inactive) | > 100 µM (inactive) | > 100 µM (inactive) | > 100 µM (inactive) | > 100 µM (inactive) | > 100 µM (inactive) |  | > 100 µM (inactive) | > 100 µM (inactive)
Oc1cccc(C2SCc3nc4ccccc4n32)c1 (stereo not given) | 13.2 µM (inactive) | 48.2 µM (inactive) | > 100 µM (inactive) | 43.5 µM (inactive) |  | 16.9 µM (inactive) | 31.6 µM (inactive) | 21.2 µM (inactive) | 38.8 µM (inactive) | 38.3 µM (inactive) | 45.6 µM (inactive) | 59.4 µM (inactive) | 76 µM (inactive) | 14.8 µM (inactive) | > 100 µM (inactive) | > 100 µM (inactive) | 84.5 µM (inactive) | 77.1 µM (inactive) | 35.6 µM (inactive) | 73.6 µM (inactive)
CC(C)=CCC/C(C)=C/Cc1c2c(c3oc(-c4ccc(O)c(O)c4)c(O)c(=O)c3c1O)C=CC(C)(C)O2 | 6.32 µM (inactive) | 1.79 µM (inactive) | 1.64 µM (inactive) |  | 2.1 | 2.44 µM (inactive) | 1.77 µM (inactive) | 6.22 µM (inactive) | 5.41 µM (inactive) | 0.916 µM (active) | 1.32 µM (inactive) | 4.37 µM (inactive) | 6.58 µM (inactive) | 2.95 µM (inactive) | 2.57 µM (inactive) | 5.24 µM (inactive) | 3.21 µM (inactive) | 5.31 µM (inactive) | 3.44 µM (inactive) | 3.56 µM (inactive)
C#CCOC(=O)C(N)CS (stereo not given) | > 100 µM (inactive) | > 100 µM (inactive) | > 100 µM (inactive) | > 100 µM (inactive) |  | > 100 µM (inactive) | > 100 µM (inactive) | > 100 µM (inactive) | > 100 µM (inactive) | > 100 µM (inactive) | > 100 µM (inactive) | > 100 µM (inactive) | > 100 µM (inactive) | > 100 µM (inactive) | > 100 µM (inactive) | > 100 µM (inactive) | > 100 µM (inactive) | > 100 µM (inactive) | > 100 µM (inactive) | > 100 µM (inactive)
Cc1cccc(N(CC(=O)O)S(=O)(=O)c2ccccc2)c1 | > 100 µM (inactive) | > 100 µM (inactive) | > 100 µM (inactive) | > 100 µM (inactive) | > 100 | > 100 µM (inactive) | > 100 µM (inactive) | > 100 µM (inactive) | > 100 µM (inactive) | > 100 µM (inactive) | > 100 µM (inactive) | > 100 µM (inactive) | > 100 µM (inactive) | > 100 µM (inactive) | > 100 µM (inactive) | > 100 µM (inactive) | > 100 µM (inactive) | > 100 µM (inactive) | > 100 µM (inactive) | > 100 µM (inactive)
